Source: PubChem BioAssay (NCI)
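1) Cells in 96-well plates. 2) Compound, 48 h, 5 concentrations. 3) Linear interpolation between surrounding doses. 4) Unreached endpoint = highest concentration. TGI marks complete inhibition of growth.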

Legend:
Assay in all cases: inhibition of tumour cell growth, NCI panel, 48 h
786-0 renal = tested on: 786-0 renal
A498 renal = tested on: A498 renal
A549 NSCLC = tested on: A549 NSCLC
ACHN renal = tested on: ACHN renal
BT-549 breast = tested on: BT-549 breast
CAKI-1 renal = tested on: CAKI-1 renal
COLO 205 colon = tested on: COLO 205 colon
DU-145 prostate = tested on: DU-145 prostate
EKVX NSCLC = tested on: EKVX NSCLC
HCC-2998 colon = tested on: HCC-2998 colon
HCT-116 colon = tested on: HCT-116 colon
HCT-15 colon = tested on: HCT-15 colon
HOP-62 NSCLC = tested on: HOP-62 NSCLC
HOP-92 NSCLC = tested on: HOP-92 NSCLC
HS 578T breast = tested on: HS 578T breast
HT29 colon = tested on: HT29 colon
IGROV1 ovarian = tested on: IGROV1 ovarian
K-562 leukemia = tested on: K-562 leukemia
KM12 colon = tested on: KM12 colon
LOX IMVI melanoma = tested on: LOX IMVI melanoma
M14 melanoma = tested on: M14 melanoma
MALME-3M melanoma = tested on: MALME-3M melanoma
MCF7 breast = tested on: MCF7 breast
MDA-MB-231 breast = tested on: MDA-MB-231 breast
MDA-MB-435 = tested on: MDA-MB-435
MDA-N = tested on: MDA-N
MOLT-4 leukemia = tested on: MOLT-4 leukemia
NCI-H226 lung = tested on: NCI-H226 lung
NCI-H23 lung = tested on: NCI-H23 lung
NCI-H460 lung = tested on: NCI-H460 lung
NCI-H522 lung = tested on: NCI-H522 lung
NCI/ADR-RES ovarian = tested on: NCI/ADR-RES ovarian
OVCAR-3 ovarian = tested on: OVCAR-3 ovarian
OVCAR-4 ovarian = tested on: OVCAR-4 ovarian
OVCAR-5 ovarian = tested on: OVCAR-5 ovarian
OVCAR-8 ovarian = tested on: OVCAR-8 ovarian
PC-3 prostate = tested on: PC-3 prostate
RPMI-8226 leukemia = tested on: RPMI-8226 leukemia
RXF 393 renal = tested on: RXF 393 renal
SF-268 CNS = tested on: SF-268 CNS
SF-295 CNS = tested on: SF-295 CNS
SF-539 CNS = tested on: SF-539 CNS
SK-MEL-2 melanoma = tested on: SK-MEL-2 melanoma
SK-MEL-28 melanoma = tested on: SK-MEL-28 melanoma
SK-MEL-5 melanoma = tested on: SK-MEL-5 melanoma
SK-OV-3 ovarian = tested on: SK-OV-3 ovarian
SN12C renal = tested on: SN12C renal
SNB-19 CNS = tested on: SNB-19 CNS
SNB-75 CNS = tested on: SNB-75 CNS
SR leukemia = tested on: SR leukemia
SW-620 colon = tested on: SW-620 colon
T-47D breast = tested on: T-47D breast
TK-10 renal = tested on: TK-10 renal
U251 CNS = tested on: U251 CNS
UACC-257 melanoma = tested on: UACC-257 melanoma
UACC-62 melanoma = tested on: UACC-62 melanoma
UO-31 renal = tested on: UO-31 renal
CCRF-CEM leukemia = tested on: CCRF-CEM leukemia
HL-60(TB) leukemia = tested on: HL-60(TB) leukemia

Measured: TGI

O=C(/C=C/c1cccc(Oc2ccccc2)c1)NCc1ccc(C(=O)NCCc2ccccc2)cc1
92.6 µM: SNB-75 CNS
61.1 µM: RXF 393 renal
not listed: CCRF-CEM leukemia | HL-60(TB) leukemia
> 100 µM: all other assays above

Cc1ccc(-c2nc(N/N=C/c3ccc(O)cc3)c3ccccc3n2)cc1
31.7 µM: PC-3 prostate
31.8 µM: CAKI-1 renal
68.5 µM: TK-10 renal
30.8 µM: HCC-2998 colon
23.7 µM: MDA-N
65.7 µM: U251 CNS
41.4 µM: KM12 colon
48.2 µM: MDA-MB-435
15.4 µM: SK-MEL-5 melanoma | UACC-257 melanoma
30.1 µM: NCI-H522 lung
64 µM: SNB-75 CNS
50.1 µM: NCI-H460 lung
24.7 µM: UO-31 renal
26.2 µM: MCF7 breast
16.2 µM: OVCAR-4 ovarian
91.5 µM: MDA-MB-231 breast
81.5 µM: SK-MEL-28 melanoma
25.4 µM: SN12C renal
37.4 µM: EKVX NSCLC
71.9 µM: 786-0 renal
26.4 µM: UACC-62 melanoma
89.5 µM: SF-295 CNS
33.8 µM: NCI-H23 lung
29.4 µM: MALME-3M melanoma
26 µM: T-47D breast
61.9 µM: OVCAR-5 ovarian
37.6 µM: HCT-116 colon
76 µM: RXF 393 renal
18.9 µM: M14 melanoma
75.2 µM: DU-145 prostate
35.7 µM: ACHN renal
32.7 µM: SK-MEL-2 melanoma
36.2 µM: LOX IMVI melanoma
not listed: A498 renal
> 100 µM: all other assays above

CN(C)c1ccc(/C=C(\NC(=O)c2ccccc2)C2=NC(CCC(=O)O)C(=O)O2)cc1 (centres undefined)
49.1 µM: NCI-H522 lung
> 50 µM: all other assays above
